Test: Diffusion or passage of latanoprost from the substance insert through the wall of the punctum plug
Type: physicochemical
From the text: In applications where it is desired to deliver the therapeutic or diagnostic substance to or through the cornea or the eye it is desirable to cause the substance to become dissolved in the tear film TF which covers the cornea of the eye, while deterring or minimizing untoward loss of substance through other routes, such as through direct absorption into tissues surrounding the punctum and/or canaliculus LC in which the device is implanted (referred to generally herein as “pericanalicular tissue absorption”) or by drainage through the naso-lacrimal system into the nose. One way to limit or deter such loss of substance is to render all or part of the punctum plug 12, 12a impervious to the substance so that the substance cannot diffuse or pass through the wall of the punctum plug 12, 12a. This may be particularly important in embodiments where the punctum plug 12, 12a is formed of silicone or other material through which the substance can pass. […] The substance insert receiving portion 20b may have the same configuration as either of those substance insert receiving portions 20, 20a described above. However, in this embodiment, a coating 60 has been applied to the outer surface of the side wall of the substance insert receiving portion 20b. Such coating may also be applied to other portions of the punctum plug 12b or to the entire punctum plug 12b. […]

## CC(C)OC(=O)CCC/C=C\C[C@@H]1[C@@H](CC[C@@H](O)CCc2ccccc2)[C@H](O)C[C@@H]1O [latanoprost]
Punctum plug formed of silicone, no coating, substance insert contains latanoprost
  diffusion or passage through the wall of the punctum plug: some of the latanoprost will diffuse or pass through the wall of the punctum plug
substance-impervious coating 60 applied to outer surface of the substance insert receiving portion and/or other portions of the punctum plug
  loss by diffusion or passage through the punctum plug: substantially prevented

Source: US20100189766A1, “SUBSTANCE DELIVERING PUNCTUM IMPLANTS AND METHODS” (QLT PLUG DELIVERY, INC., priority 2008, published 2010)
